Assay [1] relates to Patient. Nature of the assay: Treatment of a patient with acute ST elevation myocardial infarction (Examples 13-15). The assay is classed as in vivo, human. As to conditions: 1.0 to 100 mg/kg intravenously. On the procedure: A person presents with sudden chest pain typically radiating to the left arm or left side of the neck, shortness of breath, nausea and palpitation with vomiting and sweating. After being evaluated with an electrocardiogram (EKG, ECG), a chest X-ray and blood tests to detect elevations in cardiac markers (blood tests to detect heart muscle damage), they are diagnosed as suffering from acute ST elevation myocardial infarction. The patient is administered a composition comprising an effective amount of 3,4-methylenedioxy-6-nitrophenyl acetate (INV 75) (1.0 to 100 mg/kg) intravenously. The composition is optionally administered in conjunction with therapy such as thrombolytic drugs such as tissue plasminogen activator (tPA) or streptokinase and administration of aspirin, a drug to reduce the tendency of platelet aggregation, such as clopidogrel bisulfate, a statin, and/or heparin or a combination thereof, using dosages known to one of ordinary skill in the art. Patient reports improvement in the chest pain, shortness of breath and palpitations.
A person presents with sudden chest pain typically radiating to the left arm or left side of the neck, shortness of breath, nausea and palpitation with vomiting and sweating. After being evaluated with an electrocardiogram (EKG, ECG), a chest X-ray and blood tests to detect elevations in cardiac markers (blood tests to detect heart muscle damage), they are diagnosed as suffering from acute ST elevation myocardial infarction. The patient is administered a composition comprising an effective amount of 3,4-methylenedioxy-6-nitrophenyl acetate (INV 7465) (1.0 to 100 mg/kg) intravenously. […]
A person presents with sudden chest pain typically radiating to the left arm or left side of the neck, shortness of breath, nausea and palpitation with vomiting and sweating. After being evaluated with an electrocardiogram (EKG, ECG), a chest X-ray and blood tests to detect elevations in cardiac markers (blood tests to detect heart muscle damage), they are diagnosed as suffering from acute ST elevation myocardial infarction. […]

In assay [2] the test system is p65 subunit of NF-κB. The experiment in a line: NF-κB translocation assay in HUVECs. It counts as cell-based, human. The conditions noted are these: HUVEC. An excerpt: NF-κB Translocation Assays: Cytokines such as TNF-α and interleukin-1 (IL-1) activate a pro-inflammatory response in endothelial cells. An early event in this response is nuclear translocation of the NF-κB transcription factor. This translocation causes the transcription of pro-inflammatory genes such as adhesion molecules VCAM-1, ICAM-1 and E-Selectin to be induced.
NF-κB is a heterodimer, composed of p65 and p50 subunits. Nuclear translocation is monitored by immunolocalization of the p65 subunit of NF-κB in fixed cells and is quantified by measuring the ratio of nuclear to cytoplasmic NF-κB signal. The nuclear translocation of NF-κB in stimulated cells such as primary human umbilical vein endothelial cells (HUVECs) therefore provides a readout that can be used to study the effects of bioactive compounds on the responsiveness of endothelium to pro-inflammatory stimuli. HUVECs were pre-treated with INV-75 at various concentrations (10 nM to 1 μM) or control (without [INV-75) for 24 hours. The media was then changed to one containing 10 ng/ml TNFα, or 1 μg/ml bovine serum albumin (vehicle) for 6 hours. p65 distribution was calculated as intensity in the cytoplasm and nucleus in regions of interest. At least 5 cells per high power field were used and at least 5 high power fields per concentration of the drug were used. The intensities were then expressed as the ratio of nuclear to cytoplasmic staining at least 5 cells per high power field. The data was then expressed as a ratio of the nuclear to cytoplasmic ratio without TNF-α.
In alternate experiments to assess NF-κB Activation extraction reagents were used to extract nuclear and cytoplasmic fraction from HUVEC cells previously treated with INV-75 at various concentrations for 6-24 hours before being stimulated with 2 ng/mL TNF-α for 6 hours. The expression of VCAM-1 and ICAM-1 were evaluated after TNF-α stimulation for 6 hours stimulation by western blot analysis. The p65 level in nuclear and cytoplasmic extracts were then analyzed by western blotting as described above.

In assay [3] the test system is New Zealand White rabbits. Nature of the assay: Plasma lipid profile in NZW rabbits. The assay is classed as in vivo, rabbit. As to conditions: end of treatment. On the procedure:
Animal Model: 15 male New Zealand White rabbits (Charles River, Mass.) were fed with high fat diet (HFD) (Harlan Teklad rabbit diet with 0.5% cholesterol, TD 87251). After 4 weeks of high fat diet, rabbits were randomized into three different treatment groups, normal control (n=5), lipoic acid (100 mg/kg/day) (n=5), INV 70-65 (100 mg/kg/day) (n=5). These drugs were administered to the animals via their chow by mixing the drugs with the high fat diet. A fixed amount of chow and drugs admixed in the chow were fed to all animals every day after carefully calculating food intake in each rabbit. Drugs were dissolved in 100% ethanol and sprayed onto the diet and kept under vacuum to let ethanol evaporate overnight. Two (2) weeks after drug or control admixed HFD, all rabbits underwent aortic balloon denudation surgeries followed by 12 weeks of continued administration of drug or controls admixed with HFD. FIG. 29 provides an outline of the experimental design.
A lipid profile (Cholesterol, Triglycerides, direct HDL, LDL and VLDL) was performed after a total of 12 weeks of treatment with the drugs. One (1) ml of blood from the ear lobe vein was placed into tubes containing K EDTA at the beginning of the high cholesterol diet and again at the time of sacrifice. All values were expressed as mean±SD. The bar graph of each group both at the baseline and the end point measurement is presented. The statistical analysis was done with one way ANOVA.

On to `O=C(CCCCC1CCSS1)Oc1cc2c(cc1[N+](=O)[O-])OCO2` (stereo not drawn) [INV-7465, 3,4-Methylenedioxy 6-nitro phenyl lipoate], for which the “chest pain, shortness of breath and palpitations” value (shortened to “chest pain, shortness”) in assay [1] is given as “improvement”. Also, the “ratio of nuclear to cytoplasmic staining of p65” value in assay [2] (TNF-α, at all the concentrations tested) is listed as “decrease”.

Consider `CC(=O)Oc1cc2c(cc1[N+](=O)[O-])OCO2` [INV-75, 3,4-methylenedioxy-6-nitrophenyl acetate], for which the “chest pain, shortness” value in assay [1] is recorded as “improvement”. In assay [2] (24 hours pre-treatment, then TNF-α, n=3), the “nuclear p65 expression (nuclear to cytoplasmic ratio)” value was “marked inhibition”. Also, in assay [2] (TNF-α stimulated), the “concentration from which translocation of p65 to the nucleus is inhibited” value was at least 10 nM. In addition, in assay [3], the “LDL level compared to normal control” value is reported as “moderate decreases” and the “TC level compared to normal control” value is “moderate decreases”.

For the compound `O=C(CCCCC1CCSS1)Oc1ccc2c(c1)OCO2` (stereo not drawn) [INV-7065, 3,4-Methylenedioxy phenyl lipoate], in assay [1], the “chest pain, shortness” value is “improvement”. Besides, in assay [3], the HDL levels result is on record as “insignificant change”, the “LDL level compared to normal control” value was “lower”, the “VLDL levels compared to controls” value was “slight decrease” and the “triglyceride (TG) levels compared to controls” value was “significantly decreased”.
